In data set [1] the test system is Mbnl-dependent transcripts (Clcn1 exon 7a, Serca exon22, Mbnl1 exon 5, Ldb3 exon11). Put plainly: RT-PCR splicing correction in muscle of HSA-LR mice. The note with it: for splicing defects (clcn1 exon 7a, serca exon22, mbnl1 exon 5): 30 mg/kg IV, gastrocnemius and quadriceps of HSA-LR mice, two weeks after treatment; for splicing of Clcn1 exon 7a, Serca exon22, Mbnl1 exon 5 and Ldb3 exon11: 30 and 40 mg/kg, gastrocnemius of HSA-LR mice; for duration of splicing correction after treatment / splicing correction after single low doses: HSA-LR mice; for splicing correction after single low doses: single low doses (5 and 7.5 mg/kg). The format is in vivo, mouse. As for the experimental part:
(§1) Animal model and ASO injections. Experiments were carried out in the University of Oxford or in the “Centre d'études fonctionnelles” (Faculté de Médecine Sorbonne University) according to UK and French legislation respectively (Ethics committee approval #1760-2015091512001083v6). The intravenous injections in HSA-LR or C57BL/6 mice were performed by single or multiple administrations via the tail vein. Doses of 5, 7.5, 12.5, 30 or 40 mg/kg of peptide-PMO-CAG7 and 12.5 or 200 mg/kg of PMO were diluted in 0.9% saline and given at a volume of 5-6 μL/g of body weight. Multiple injections were done at 2 weeks apart. Myotonia was evaluated and tissues were harvested 2 weeks after the last injection. For long-term experiments, tissues were harvested 3 months after the injection. For toxicology measurements, tissues were harvested after 1 week. Urine was tested by ELISAs (R&D cat# MKM100) with samples diluted to fit within standard curve. Values were normalised to urinary creatinine levels (Harwell) to account for urine protein concentration
RNA isolation, RT-PCR and qPCR analysis. For mice tissues: prior to RNA extraction, muscles were disrupted in TriReagent (Sigma-Aldrich) using Fastprep system and Lysing Matrix D tubes (MP biomedicals). For human cells: prior to RNA extraction, cells were lysed in a proteinase K buffer (500 mM NaCl, 10 mM Tris-HCl, pH 7.2, 1.5 mM MgCl2, 10 mM EDTA, 2% SDS and 0.5 mg/ml of proteinase K) for 45 min at 55° C. Total RNAs were isolated using TriReagent according to the manufacturer's protocol. One microgram of RNA was reverse transcribed using M-MLV first-strand synthesis system (Life Technologies) according to the manufacturer's instructions in a total of 20 μL. One microliter of cDNA preparation was subsequently used in a semi-quantitative PCR analysis according to standard protocol (ReddyMix, Thermo Scientific).
PCR amplification was carried out for 25-35 cycles within the linear range of amplification for each gene. PCR products were resolved on 1.5-2% agarose gels, ethidium bromide-stained and quantified with ImageJ software. The ratios of exon inclusion were quantified as a percentage of inclusion relative to total intensity of isoform signals. To quantify the mRNA expression, real-time PCR was performed according to the manufacturer's instructions. PCR cycles were a 15-min denaturation step followed by 50 cycles with a 94° C. denaturation for 15 s, 58° C. annealing for 20 s and 72° C. extension for 20 s.

Data set [2] in a line: ELISA biodistribution of PMO in tissues of treated HSA-LR mice. The format is in vivo, mouse. The note with it: for delivery of PMO to muscle: 2 weeks after IV administration. The procedure:
Animal model and ASO injections. […] The intravenous injections in HSA-LR or C57BL/6 mice were performed by single or multiple administrations via the tail vein. […] Multiple injections were done at 2 weeks apart. Myotonia was evaluated and tissues were harvested 2 weeks after the last injection. For long-term experiments, tissues were harvested 3 months after the injection. For toxicology measurements, tissues were harvested after 1 week. Urine was tested by ELISAs (R&D cat# MKM100) with samples diluted to fit within standard curve. Values were normalised to urinary creatinine levels (Harwell) to account for urine protein concentration
ELISA based measurements of oligonucleotide concentrations in tissues. […] The probe was used to detect peptide-PMOs or naked PMO concentrations in eight different tissues (brain, kidney, liver, lung, heart, diaphragm, gastrocnemius and quadriceps) from treated HSA-LR mice.
(In an ELISA, binding on a coated surface is turned into a signal by an enzyme label.)

The next data set relates to WT mice. The data set can be described thus: Recovery time after injection, WT mice. It is filed as in vivo, mouse. Conditions: 30 mg/kg, age 8-12 weeks. As for the experimental part:
as §1

The test system of another data set is human hepatocytes. Put plainly: Cell viability in human hepatocytes. It is filed as cell-based. The note with it: 40 μM. The procedure: (§2) Cell culture and Peptide-PMO treatment. Immortalized myoblasts from healthy individual or DM1 patient with 2600 CTG repeats were cultivated in a growth medium consisting of a mix of M199:DMEM (1:4 ratio; Life technologies) supplemented with 20% FBS (Life technologies), 50 μg/ml gentamycin (Life technologies), 25 μg/ml fetuin, 0.5 ng/ml bFGF, 5 ng/ml EGF and 0.2 μg/ml dexamethasone (Sigma-Aldrich). Myogenic differentiation was induced by switching confluent cell cultures to DMEM medium supplemented with […] insulin (Sigma-Aldrich) for myoblasts. For treatment, WT or DM1 cells are differentiated for 4 days. Then, medium was changed with fresh differentiation medium with peptide-PMO conjugates at a 1, 2 ,5 10, 20 or 40 μM concentration. Cells were harvested for analysis 48 h after treatment. Cell viability was quantified in after 2 days of transfection of peptide-PMOs at 40 uM in human hepatocytes or at a 1, 2 ,5 10, 20 or 40 μM concentration in human myoblasts using a fluorescent-based assay (Promega).

In the next data set the test system is human myoblasts. Put plainly: Cell viability in human myoblasts. The format is cell-based. The note with it: 1-40 μM, 48 hours. As for the experimental part:
as §2

The subject of a further data set is mice. The data set can be described thus: Mortality in mice. Conditions: mouse, in vivo.
[3] abbreviates: 600 mg/kg (3 injections at 200 mg/kg) IV, 2 weeks post administration.

As for Ac-RBRRBRFQILYBRBR-B [DPEP1.9], in data set [1], the “splicing defects (clcn1 exon 7a, serca exon22, mbnl1 exon 5)” value was “corrected to wild type levels”; the “splicing of Clcn1 exon 7a, Serca exon22, Mbnl1 exon 5 and Ldb3 exon11” value is reported as “splicing normalization to wild type levels”; the “duration of splicing correction after treatment” value is “at least 3 months”; the “splicing correction after single low doses” value is given as “significant”. Besides, the “delivery of PMO to muscle” value in data set [2] is reported as “able to deliver the PMO to muscle successfully”.
For Ac-RBRRBRFQILYBRBR-E [DPEP1.9b], the “recovery time after injection, time AV ± SD” value in the data set on WT mice amounted to 15 min. Also, in data set [2], the “delivery of PMO to muscle” value is “able to deliver the PMO to muscle successfully”.
Consider Ac-RBRRBRFQILYRBHBH-B [DPEP3.8], for which, in data set [1], the “splicing defects (clcn1 exon 7a, serca exon22, mbnl1 exon 5)” value is “corrected to wild type levels”; the “splicing of Clcn1 exon 7a, Serca exon22, Mbnl1 exon 5 and Ldb3 exon11” value was “splicing normalization to wild type levels”; the “duration of splicing correction after treatment” value is recorded as “at least 3 months”; the “splicing correction after single low doses” value is on record as “significant”.
Turning to Ac-RBRRBRRFQILYRBHBH-Ab [DPEP3.1a], in the data set with WT mice, the “recovery time after injection, time AV ± SD” value is reported as 10 min.
In the case of Ac-RXRRBRR-FQILY-RBRXR-B [Pip9b2-PMO], in the data set on human hepatocytes, the “cell mortality in human hepatocytes” value is on record as > 50%. The “cell viability of human myoblasts” value in the data set on human myoblasts was “induced cell mortality at lower doses”.
Consider Ac-RXRRBRRXR-YQFLI-RXRBRXR-B [pip6a], for which the “dose that cannot be tested without causing high rates of mortality in mice” value in the data set with mice is given as > 20 mg/kg. Besides, the “cell mortality in human hepatocytes” value in the data set on human hepatocytes is recorded as > 50%. For the same substance, in the data set with human myoblasts, the “cell viability of human myoblasts” value is “induced cell mortality at lower doses”.
Consider “CAGCAGCAGCAGCAGCAGCAG (all phosphorodiamidate morpholino (PMO); Cell-penetrating peptide conjugated to the 3' end in the conjugates, further chemistry not fully specified) [Naked PMO]”, for which, in data set [2] (setting [3]), the “pM in Tissue: Diaphragm” value was 30 pM, the “pM in Tissue: Gastrocnemius” value is recorded as 18 pM, the “pM in Tissue: Heart” value is 198 pM and the “pM in Tissue: Kidney” value is given as 426748 pM. Moreover, in data set [2] (setting [3]), the “pM in Tissue: Liver” value was 252 pM and the “pM in Tissue: Lung” value was 113 pM. Further, the “PMO levels in all tissues tested” value in data set [2] (3 injections at 200 mg/kg, 2 weeks post administration) is reported as “low to non-detectable levels”. Further, the “PMO detected in muscle tissues” value in data set [2] (two weeks after 3x200 mg/kg naked PMO IV) was “low pM”.

These data come from patent US20220275372A1, “CONJUGATE AND USES THEREOF” (priority 2019, published 2022).
